PubChem BioAssay (NCI)
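Following 48 hours of exposure in 96-well plates, responses at five concentrations were used to interpolate endpoints linearly. TGI marks complete inhibition of growth.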

How the values were obtained:
Test in all cases: NCI anticancer screen, dose series, 48 h
786-0 renal = test system: 786-0 renal
A498 renal = test system: A498 renal
A549 NSCLC = test system: A549 NSCLC
ACHN renal = test system: ACHN renal
BT-549 breast = test system: BT-549 breast
CAKI-1 renal = test system: CAKI-1 renal
CCRF-CEM leukemia = test system: CCRF-CEM leukemia
COLO 205 colon = test system: COLO 205 colon
DU-145 prostate = test system: DU-145 prostate
HCC-2998 colon = test system: HCC-2998 colon
HCT-116 colon = test system: HCT-116 colon
HCT-15 colon = test system: HCT-15 colon
HL-60(TB) leukemia = test system: HL-60(TB) leukemia
HOP-62 NSCLC = test system: HOP-62 NSCLC
HOP-92 NSCLC = test system: HOP-92 NSCLC
HS 578T breast = test system: HS 578T breast
HT29 colon = test system: HT29 colon
IGROV1 ovarian = test system: IGROV1 ovarian
K-562 leukemia = test system: K-562 leukemia
KM12 colon = test system: KM12 colon
LOX IMVI melanoma = test system: LOX IMVI melanoma
M14 melanoma = test system: M14 melanoma
MALME-3M melanoma = test system: MALME-3M melanoma
MCF7 breast = test system: MCF7 breast
MDA-MB-231 breast = test system: MDA-MB-231 breast
MDA-MB-435 = test system: MDA-MB-435
MDA-N = test system: MDA-N
NCI-H226 lung = test system: NCI-H226 lung
NCI-H23 lung = test system: NCI-H23 lung
NCI-H460 lung = test system: NCI-H460 lung
NCI-H522 lung = test system: NCI-H522 lung
NCI/ADR-RES ovarian = test system: NCI/ADR-RES ovarian
OVCAR-3 ovarian = test system: OVCAR-3 ovarian
OVCAR-4 ovarian = test system: OVCAR-4 ovarian
OVCAR-5 ovarian = test system: OVCAR-5 ovarian
OVCAR-8 ovarian = test system: OVCAR-8 ovarian
PC-3 prostate = test system: PC-3 prostate
RPMI-8226 leukemia = test system: RPMI-8226 leukemia
RXF 393 renal = test system: RXF 393 renal
SF-268 CNS = test system: SF-268 CNS
SF-295 CNS = test system: SF-295 CNS
SF-539 CNS = test system: SF-539 CNS
SK-MEL-2 melanoma = test system: SK-MEL-2 melanoma
SK-MEL-28 melanoma = test system: SK-MEL-28 melanoma
SK-MEL-5 melanoma = test system: SK-MEL-5 melanoma
SK-OV-3 ovarian = test system: SK-OV-3 ovarian
SN12C renal = test system: SN12C renal
SNB-19 CNS = test system: SNB-19 CNS
SNB-75 CNS = test system: SNB-75 CNS
SR leukemia = test system: SR leukemia
SW-620 colon = test system: SW-620 colon
T-47D breast = test system: T-47D breast
TK-10 renal = test system: TK-10 renal
U251 CNS = test system: U251 CNS
UACC-257 melanoma = test system: UACC-257 melanoma
UACC-62 melanoma = test system: UACC-62 melanoma
UO-31 renal = test system: UO-31 renal
EKVX NSCLC = test system: EKVX NSCLC
MOLT-4 leukemia = test system: MOLT-4 leukemia

COC1=C(Br)C(O)C2(C=C1Br)CC(C(=O)NCCCCNC(=O)C1=NOC3(C=C(Br)C(OC)=C(Br)C3O)C1)=NO2 (stereo not given)
TGI (786-0 renal): > 100 µM | TGI (A498 renal): > 100 µM | TGI (A549 NSCLC): > 100 µM | TGI (ACHN renal): 75.1 µM | TGI (BT-549 breast): > 100 µM | TGI (CAKI-1 renal): > 100 µM | TGI (CCRF-CEM leukemia): 40.3 µM | TGI (COLO 205 colon): 30.9 µM | TGI (DU-145 prostate): > 100 µM | TGI (HCC-2998 colon): > 100 µM | TGI (HCT-116 colon): 49.3 µM | TGI (HCT-15 colon): > 100 µM | TGI (HL-60(TB) leukemia): 47.4 µM | TGI (HOP-62 NSCLC): 79 µM | TGI (HOP-92 NSCLC): 94.9 µM | TGI (HS 578T breast): 46.9 µM | TGI (HT29 colon): 38.8 µM | TGI (IGROV1 ovarian): 46.8 µM | TGI (K-562 leukemia): 55.4 µM | TGI (KM12 colon): 27.3 µM | TGI (LOX IMVI melanoma): 35.1 µM | TGI (M14 melanoma): 37 µM | TGI (MALME-3M melanoma): 45.5 µM | TGI (MCF7 breast): 87.4 µM | TGI (MDA-MB-231 breast): 66.6 µM | TGI (MDA-MB-435): 49.8 µM | TGI (MDA-N): 39.7 µM | TGI (NCI-H226 lung): 41.2 µM | TGI (NCI-H23 lung): > 100 µM | TGI (NCI-H460 lung): > 100 µM | TGI (NCI-H522 lung): 29.8 µM | TGI (NCI/ADR-RES ovarian): > 100 µM | TGI (OVCAR-3 ovarian): 39.4 µM | TGI (OVCAR-4 ovarian): > 100 µM | TGI (OVCAR-5 ovarian): > 100 µM | TGI (OVCAR-8 ovarian): > 100 µM | TGI (PC-3 prostate): 62.8 µM | TGI (RPMI-8226 leukemia): 50.5 µM | TGI (RXF 393 renal): 69.6 µM | TGI (SF-268 CNS): 45.1 µM | TGI (SF-295 CNS): 90.5 µM | TGI (SF-539 CNS): 50.3 µM | TGI (SK-MEL-2 melanoma): 52.8 µM | TGI (SK-MEL-28 melanoma): > 100 µM | TGI (SK-MEL-5 melanoma): 36.6 µM | TGI (SK-OV-3 ovarian): > 100 µM | TGI (SN12C renal): > 100 µM | TGI (SNB-19 CNS): > 100 µM | TGI (SNB-75 CNS): 61.2 µM | TGI (SR leukemia): 38.9 µM | TGI (SW-620 colon): > 100 µM | TGI (T-47D breast): 62.9 µM | TGI (TK-10 renal): > 100 µM | TGI (U251 CNS): > 100 µM | TGI (UACC-257 melanoma): 52.8 µM | TGI (UACC-62 melanoma): > 100 µM | TGI (UO-31 renal): > 100 µM

COc1ccc(P2(=S)SP(=S)(c3ccc(Cl)cc3)S2)cc1 (stereo not given)
TGI (786-0 renal): > 100 µM | TGI (A498 renal): > 100 µM | TGI (A549 NSCLC): > 100 µM | TGI (ACHN renal): > 100 µM | TGI (BT-549 breast): > 100 µM | TGI (CAKI-1 renal): > 100 µM | TGI (CCRF-CEM leukemia): > 100 µM | TGI (COLO 205 colon): > 100 µM | TGI (DU-145 prostate): > 100 µM | TGI (EKVX NSCLC): > 100 µM | TGI (HCC-2998 colon): > 100 µM | TGI (HCT-116 colon): > 100 µM | TGI (HCT-15 colon): > 100 µM | TGI (HL-60(TB) leukemia): > 100 µM | TGI (HOP-62 NSCLC): > 100 µM | TGI (HOP-92 NSCLC): > 100 µM | TGI (HS 578T breast): > 100 µM | TGI (HT29 colon): > 100 µM | TGI (IGROV1 ovarian): > 100 µM | TGI (KM12 colon): > 100 µM | TGI (LOX IMVI melanoma): > 100 µM | TGI (M14 melanoma): > 100 µM | TGI (MALME-3M melanoma): > 100 µM | TGI (MCF7 breast): > 100 µM | TGI (MDA-MB-231 breast): > 100 µM | TGI (MDA-MB-435): > 100 µM | TGI (MDA-N): > 100 µM | TGI (MOLT-4 leukemia): > 100 µM | TGI (NCI-H226 lung): > 100 µM | TGI (NCI-H23 lung): > 100 µM | TGI (NCI-H460 lung): > 100 µM | TGI (NCI-H522 lung): > 100 µM | TGI (NCI/ADR-RES ovarian): > 100 µM | TGI (OVCAR-3 ovarian): > 100 µM | TGI (OVCAR-4 ovarian): > 100 µM | TGI (OVCAR-5 ovarian): > 100 µM | TGI (OVCAR-8 ovarian): > 100 µM | TGI (PC-3 prostate): > 100 µM | TGI (RPMI-8226 leukemia): > 100 µM | TGI (RXF 393 renal): > 100 µM | TGI (SF-268 CNS): > 100 µM | TGI (SF-295 CNS): > 100 µM | TGI (SF-539 CNS): > 100 µM | TGI (SK-MEL-2 melanoma): > 100 µM | TGI (SK-MEL-28 melanoma): > 100 µM | TGI (SK-MEL-5 melanoma): > 100 µM | TGI (SK-OV-3 ovarian): > 100 µM | TGI (SN12C renal): > 100 µM | TGI (SNB-19 CNS): > 100 µM | TGI (SNB-75 CNS): > 100 µM | TGI (SR leukemia): > 100 µM | TGI (SW-620 colon): > 100 µM | TGI (T-47D breast): > 100 µM | TGI (TK-10 renal): > 100 µM | TGI (U251 CNS): > 100 µM | TGI (UACC-257 melanoma): > 100 µM | TGI (UACC-62 melanoma): > 100 µM | TGI (UO-31 renal): > 100 µM
